Test results taken from patent publication US6699868B2, “Pyridazinyl phenyl hydrazones useful against congestive heart failure” (Orion Corporation, priority 2000, dated 2004).

system: skinned cardiac fiber; assay: Calcium sensitizing effect in skinned cardiac fiber; format: cell-based, guinea-pig; conditions: Cavia porcellus; maximum effect; test compound 0.1-10 μM added cumulatively; calcium (pCa 6.0 or 6.2)-induced tension; room temperature; read-out: Change in force/ % change from control (maximum calcium sensitizing effect in skinned fiber)
Method: Experiment 1. Calcium sensitizing effect in skinned cardiac fiber
The heart of a guinea-pig was excised and perfused with ice-cold saponin (125 mg/l) skinning solution consisting of (mM): K^+-acetate 74.7. EGTA-Na2 10, MgSO4 5.4, ATP-Na2 4, MOPS 20, pH 7.0 (by 1 M KOH). Left ventricular papillary muscle was dissected and sonicated at 10 Watt for 60 s. The distance between ultrasound probe and the papillary muscle was 10 mm. The fibres (<200 μm in diameter) were dissected from the surface of sonicated papillary muscles in the same solution.
The fibre was glued between platinum wires, one attached to an isometric force transducer (type AE-801,SensoNor, Horten, Norway) and another to a micro manipulator. The fibre was relaxed in a solution consisting of (mM): EGTA-Na2 10, MgSO4 5.4, ATP-Na2 4, MOPS 20. The pH of the solution was adjusted to 7.0 and ionic strength to 0.16 M by the addition of KOH and K^+-acetate. Creatine kinase and creatine phosphate were not added as an ATP generating system because the developed tension was well sustained for the time required for experiment. The calculations for ionic strength and for free calcium (pCa 7.0-6.2) were performed using a suitable program. The fibres were stretched in relaxing solution until resting tension was just noticeable. When the calcium (pCa 6.0 or 6.2)-induced tension had reached steady state the test compound (final concentrations 0.1, 0.3, 1, 3,and 10 μM) was cumulatively added into the solution at 6 min intervals. All the experiments were carried out with fresh fibres at normal room temperature.

Point of comparison: CC(=NNc1ccc(C2=NNC(=O)CC2C)cc1)c1ccc(O)c(C)c1O (stereo not drawn) [Example 38, 6-(4-{N′-[1-(2,4-Dihydroxy-3-methyl-phenyl)-ethylidene]-hydrazino}-phenyl)-5-methyl-4,5-dihydro-2H-pyridazin-3-one], Emax 32.2%. Against it:
- Cc1cc(=O)n(C)nc1-c1ccc(NN=Cc2ccc(O)cc2O)cc1 [Example 24, 6-{4-[N′-(2,4-Dihydroxybenzylidene)hydrazino]phenyl}-2,5-dimethyl-2H-pyridazin-3-one] — higher, 42%
- CC(=O)Nc1ccc(C(C)=NNc2ccc(C3=NNC(=O)CC3C)cc2)cc1 (stereo not drawn) [Example 37, N-[4-(1-{[4-(4-Methyl-6-oxo-1,4,5,6-tetrahydro-pyridazin-3-yl)-phenyl]-hydrazono}-ethyl)-phenyl]-acetamide] — lower, 21.7%

system: not given; assay: not given; conditions: not given

Point of comparison: CCCCc1c(O)ccc(C=NNc2ccc(C3=NNC(=O)CC3C)cc2)c1O (stereo not drawn) [Example 44, 6-{4-[N′-(3-Butyl-2,4-dihydroxy-benzylidene)-hydrazino]-phenyl}-5-methyl-4,5-dihydro-2H-pyridazin-3-one], melting point 218 °C. Against it:
- O=c1[nH]nc(-c2ccc(NN=Cc3ccc(O)cc3O)cc2)c2ccccc12 [Example 18, 4-{4-[N′-(2,4-Dihydroxy-benzylidene)-hydrazino]-phenyl}-2H-phthalazin-1-one] — higher, 278 to 283 °C
- CC1CC(=O)NN=C1c1ccc(NN=Cc2ccc(S(C)(=O)=O)cc2)cc1 (stereo not drawn) [Example 19, 6-{4-[N′-(4-Methanesulfonylbenzylidene)hydrazino]phenyl}-5-methyl-4,5-dihydro-2H-pyridazin-3-one] — lower, 130 to 137 °C
- CC1CC(=O)NN=C1c1ccc(C(=NN)c2cccc(C#N)c2)cc1 (stereo not drawn) [Example 20, 3-{[4-(4-Methyl-6-oxo-1,4,5,6-tetrahydropyridazin-3-yl)phenyl]-hydrazonomethyl}-benzonitrile] — higher, 220 to 224 °C
- COc1c(O)ccc(C=NNc2ccc(-c3n[nH]c(=O)cc3C)cc2)c1[N+](=O)[O-] [Example 22, 6-{4-[N′-(4-Hydroxy-3-methoxy-2-nitrobenzylidene)hydrazino]phenyl}-5-methyl-2H-pyridazin-3-one] — higher, 264 to 268 °C
- Cc1cc(=O)n(C)nc1-c1ccc(NN=Cc2ccc(O)cc2O)cc1 [Example 24, 6-{4-[N′-(2,4-Dihydroxybenzylidene)hydrazino]phenyl}-2,5-dimethyl-2H-pyridazin-3-one] — higher, 266 to 269 °C
- Cn1nc(-c2ccc(NN=Cc3ccc(O)cc3O)cc2)ccc1=O [Example 25, 6-{4-[N′-(2,4-Dihydroxybenzylidene)hydrazino]phenyl}-2-methyl-2H-pyridazin-3-one] — higher, 304 to 306 °C
- CCC(=NNc1ccc(-c2ccc(=O)n(C)n2)cc1)c1ccc(O)cc1O [Example 27, 6-{4-{N′-[1-(2,4-Dihydroxyphenyl)propylidene]hydrazino}phenyl}-2-methyl-2H-pyridazin-3-one] — higher, 225 to 233 °C
- CCc1c(O)ccc(C=NNc2ccc(-c3ccc(=O)n(C)n3)cc2)c1O [Example 28, 6-{4-[N′-(2,4-Dihydroxy-3-ethylbenzylidene)hydrazino]phenyl}-2-methyl-2H-pyridazin-3-one] — higher, 262 to 266 °C
- Cn1nc(-c2ccc(NN=C(CCC(=O)O)c3ccc(O)cc3O)cc2)ccc1=O [Example 29, 4-(2,4-Dihydroxyphenyl)-4-{[4-(1-methyl-6-oxo-1,6-dihydropyridazin-3-yl)phenyl]hydrazono}butyric acid] — lower, 138 to 141 °C
- CCC1CC(=O)NN=C1c1ccc(NN=Cc2ccc(O)cc2O)cc1 (stereo not drawn) [Example 36, 6-{4-[N′-(2,4-Dihydroxy-benzylidene)-hydrazino]-phenyl}-5-ethyl-4,5-dihydro-2H-pyridazin-3-one] — higher, 270 to 275 °C
- CC(=O)Nc1ccc(C(C)=NNc2ccc(C3=NNC(=O)CC3C)cc2)cc1 (stereo not drawn) [Example 37, N-[4-(1-{[4-(4-Methyl-6-oxo-1,4,5,6-tetrahydro-pyridazin-3-yl)-phenyl]-hydrazono}-ethyl)-phenyl]-acetamide] — lower, 145 to 155 °C
- CC(=NNc1ccc(C2=NNC(=O)CC2C)cc1)c1ccc(O)c(C)c1O (stereo not drawn) [Example 38, 6-(4-{N′-[1-(2,4-Dihydroxy-3-methyl-phenyl)-ethylidene]-hydrazino}-phenyl)-5-methyl-4,5-dihydro-2H-pyridazin-3-one] — higher, 244 to 248 °C
- CC(=O)c1c(O)ccc(C=NNc2ccc(C3=NNC(=O)CC3C)cc2)c1O (stereo not drawn) [Example 39, 6-{4-[N′-(3-Acetyl-2,4-dihydroxy-benzylidene)-hydrazino]-phenyl}-5-methyl-4,5-dihydro-2H-pyridazin-3-one] — higher, 268 to 270 °C
- CC(=O)Nc1ccc(C(=NN)c2ccc(C3=NNC(=O)CC3C)cc2)c(O)c1 (stereo not drawn) [Example 41, N-(3-Hydroxy-4-{[4-(4-methyl-6-oxo-1,4,5,6-tetrahydro-pyridazin-3-yl)-phenyl]-hydrazonomethyl}-phenyl)-acetamide] — higher, 269 to 275 °C
- CC1CC(=O)NN=C1c1ccc(NN=Cc2ccc(Cl)cc2Cl)cc1 (stereo not drawn) [Example 42, 6-{4-[N′-(2,4-Dichloro-benzylidene)-hydrazino]-phenyl}-5-methyl-4,5-dihydro-2H-pyridazin-3-one] — higher, 252 to 254 °C
- CC1CC(=O)NN=C1c1ccc(NN=Cc2ccc([N+](=O)[O-])cc2)cc1 (stereo not drawn) [Example 52, 6-{4-[N′-(4-nitrobenzylidene)-hydrazino]-phenyl}-5-methyl-4,5-dihydro-2H-pyridazin-3-one] — lower, 216 to 217 °C
- COc1ccccc1C=NNc1ccc(C2=NNC(=O)CC2C)cc1 (stereo not drawn) [Example 53, 6-{4-[N′-(2-Methoxy-benzylidene)-hydrazino]-phenyl}-5-methyl-4,5-dihydro-2H-pyridazin-3-one] — lower, 180 to 183 °C
- CC1CC(=O)NN=C1c1ccc(NN=Cc2ccccc2O)cc1 (stereo not drawn) [Example 54, 6-{4-[N′-(2-Hydroxy-benzylidene)-hydrazino]-phenyl}-5-methyl-4,5-dihydro-2H-pyridazin-3-one] — higher, 265 to 268 °C
- COc1ccc(C=NNc2ccc(C3=NNC(=O)CC3C)cc2)cc1 (stereo not drawn) [Example 55, 6-{4-[N′-(4-Methoxy-benzylidene)-hydrazino]-phenyl}-5-methyl-4,5-dihydro-2H-pyridazin-3-one] — lower, 172 to 174 °C
- CC1CC(=O)NN=C1c1ccc(C(=NN)c2ccc(O)c(C(=O)O)c2O)cc1 (stereo not drawn) [Example 56, 2,6-Dihydroxy-3-{[4-(4-methyl-6-oxo-1,4,5,6-tetrahydro-pyridazin-3-yl)-phenyl]-hydrazonomethyl}-benzoic acid] — not separable, 215 to 218 °C
- COc1cccc(C=NNc2ccc(C3=NNC(=O)CC3C)cc2)c1O (stereo not drawn) [Example 57, 6-{4-[N′-(2-Hydroxy-3-methoxy-benzylidene)-hydrazino]-phenyl}-5-methyl-4,5-dihydro-2H-pyridazin-3-one] — lower, 210 to 213 °C
- CC1CC(=O)NN=C1c1ccc(NN=Cc2ccccc2[N+](=O)[O-])cc1 (stereo not drawn) [Example 58, 6-{4-[N′-(2-nitro-benzylidene)-hydrazino]-phenyl}-5-methyl-4,5-dihydro-2H-pyridazin-3-one] — higher, 250 to 253 °C
- CC1CC(=O)NN=C1c1ccc(C(=NN)c2ccc(C#N)cc2)cc1 (stereo not drawn) [Example 60, 4-{[4-(4-Methyl-6-oxo-1,4,5,6-tetrahydro-pyridazin-3-yl)-phenyl]-hydrazonomethyl}-benzonitrile] — higher, 246 to 248 °C
- CC1CC(=O)NN=C1c1ccc(NN=Cc2ccc(O)cc2)cc1 (stereo not drawn) [Example 61, 6-{4-[N′-(4-Hydroxy-benzylidene)-hydrazino]-phenyl}-5-methyl-4,5-dihydro-2H-pyridazin-3-one] — higher, 258 to 261 °C
- CC1CC(=O)NN=C1c1ccc(NN=Cc2cccc(O)c2)cc1 (stereo not drawn) [Example 62, 6-{4-[N′-(3-Hydroxy-benzylidene)-hydrazino]-phenyl}-5-methyl-4,5-dihydro-2H-pyridazin-3-one] — higher, 267 to 270 °C
- CC1CC(=O)NN=C1c1ccc(NN=Cc2ccc(O)c([N+](=O)[O-])c2)cc1 (stereo not drawn) [Example 63, 6-{4-[N′-(4-Hydroxy-3-nitro-benzylidene)-hydrazino]-phenyl}-5-methyl-4,5-dihydro-2H-pyridazin-3-one] — higher, 230 to 233 °C
- CC1CC(=O)NN=C1c1ccc(NN=C(CCC(=O)O)c2ccc(O)cc2O)cc1 (stereo not drawn) [Example 64, 4-(2,4-Dihydroxy-phenyl)-4-{[4-(4-methyl-6-oxo-1,4,5,6-tetrahydro-pyridazin-3-yl)-phenyl]-hydrazono}-butyric acid] — higher, 299 to 302 °C
- CC1CC(=O)NN=C1c1ccc(NN=C(CCCC(=O)O)c2ccc(O)cc2O)cc1 (stereo not drawn) [Example 66, 5-(2,4-Dihydroxy-phenyl)-5-{[4-(4-methyl-6-oxo-1,4,5,6-tetrahydro-pyridazin-3-yl)-phenyl]-hydrazono}-pentanoic acid] — higher, 235 to 240 °C
- COc1c(O)ccc(C(C)=NNc2ccc(C3=NNC(=O)CC3C)cc2)c1[N+](=O)[O-] (stereo not drawn) [Example 67, 6-(4-{N′-[1-(4-Hydroxy-3-methoxy-2-nitro-phenyl)-ethylidene]-hydrazino}-phenyl)-5-methyl-4,5-dihydro-2H-pyridazin-3-one] — higher, 251 to 254 °C
